This passage reports MIC and ED50 results from ChEMBL document CHEMBL1122874, “Orally absorbable cephalosporin antibiotics. 1. Structure-activity relationships of benzothienyl- and naphthylglycine derivatives of 7-aminodeacetoxycephalosporanic acid” (1985).

The test system of one assay is Streptococcus. The assay can be described thus: Antibacterial activity against Streptococcus group D X66. It counts as functional.
Assay [1] concerns Staphylococcus epidermidis. Description: Antibacterial activity against Staph. epidermis EP11. It counts as functional.
In assay [2] the test system is Streptococcus pneumoniae. The assay can be described thus: Antibacterial activity against Streptococcus pneumoniae Park.
The test system of assay [3] is Staphylococcus aureus. Description: Antibacterial activity against methicillin resistant Staphylococcus aureus S13E. It counts as functional.
Assay [4] has as its system Haemophilus influenzae. The assay can be described thus: Antibacterial activity against resistant Haemophilus influenzae 76. It is filed as functional.
In assay [5] the test system is Staphylococcus aureus. The assay can be described thus: Antibacterial activity against penicillin G sensitive Staphylococcus aureus V41. It counts as functional.
For assay [6], the system named is Staphylococcus aureus. Description: Antibacterial activity against methicillin resistant Staphylococcus aureus X400. It counts as functional.
The subject of assay [7] is Streptococcus pyogenes. Description: Antibacterial activity against Streptococcus pyogenes C203. It counts as functional.
The test system of assay [8] is Staphylococcus aureus. Description: Antibacterial activity against penicillin G sensitive Staphylococcus aureus X1.1. It is filed as functional.
Assay [9] concerns Haemophilus influenzae. The assay can be described thus: Antibacterial activity against sensitive Haemophilus influenzae C.L. It counts as functional.
For assay [10], the system named is Staphylococcus aureus. The assay can be described thus: Antibacterial activity in mice infected with Staphylococcus aureus 3055. It is filed as functional.
Assay [11] relates to Streptococcus pneumoniae. Description: Antibacterial activity in mice infected with Streptococcus pneumoniae Park1 by oral administration. It counts as functional.
In assay [12] the test system is Streptococcus pyogenes. The assay can be described thus: Antibacterial activity in mice infected with Streptococcus pyogenes C203 by oral administration. It is filed as functional.
The test system of assay [13] is Staphylococcus aureus. The assay can be described thus: Antibacterial activity in mice infected with Staphylococcus aureus 3055 by oral administration. It counts as functional.
In assay [14] the test system is Staphylococcus aureus. Description: Antibacterial activity in mice infected with Staphylococcus aureus 3055 by subcutaneous administration. It counts as functional.
Assay [15] has as its system Streptococcus pneumoniae. Description: Antibacterial activity in mice infected with Streptococcus pneumoniae Park1. It is filed as functional.
For assay [16], the system named is Streptococcus pneumoniae. The assay can be described thus: Antibacterial activity in mice infected with Streptococcus pneumoniae Park1 by subcutaneous administration. It is filed as functional.
The subject of assay [17] is Streptococcus pyogenes. Description: Antibacterial activity in mice infected with Streptococcus pyogenes C203. It counts as functional.
The test system of assay [18] is Streptococcus pyogenes. The assay can be described thus: Antibacterial activity in mice infected with Streptococcus pyogenes C203 by subcutaneous administration. It is filed as functional.

In brackets after ≈: the same amount, converted by molar mass.

Take `CC1=C(C(=O)O)N2C(=O)C(NC(=O)[C@H](N)c3csc4cc(F)ccc34)C2SC1` (stereo partly drawn): the MIC came out at 128 µg/mL (≈ 304 µM) in the assay on Streptococcus, 4 µg/mL (≈ 9.49 µM) in [1], 0.5 µg/mL (≈ 1.19 µM) in the assay with Streptococcus pneumoniae [2] and 8 µg/mL (≈ 19 µM) against Staphylococcus aureus [3].
On to `CC1=C(C(=O)O)N2C(=O)C(NC(=O)[C@H](N)c3csc4cc(Cl)ccc34)C2SC1` (stereo partly drawn), for which the MIC against Haemophilus influenzae [4] was determined as 1 µg/mL (≈ 2.28 µM); against Streptococcus, 128 µg/mL (≈ 292 µM); in assay [1], 4 µg/mL (≈ 9.13 µM); against Streptococcus pneumoniae [2] it was 1 µg/mL (≈ 2.28 µM); in the assay on Staphylococcus aureus [5] it was 8 µg/mL (≈ 18.3 µM); against Staphylococcus aureus [6], 16 µg/mL (≈ 36.5 µM). Also, the MIC came to 0.5 µg/mL (≈ 1.14 µM) in the assay on Streptococcus pyogenes [7], 1 µg/mL (≈ 2.28 µM) in the assay on Staphylococcus aureus [8], 8 µg/mL (≈ 18.3 µM) in the assay with Staphylococcus aureus [3] and 8 µg/mL (≈ 18.3 µM) against Haemophilus influenzae [9].
For `CC1=C(C(=O)O)N2C(=O)C(NC(=O)[C@H](N)c3csc4ccc(F)cc34)C2SC1` (stereo partly drawn), the MIC in the assay on Haemophilus influenzae [4] was found to be 4 µg/mL (≈ 9.49 µM); in the assay on Streptococcus, 128 µg/mL (≈ 304 µM); in [1] it was 8 µg/mL (≈ 19 µM); against Streptococcus pneumoniae [2], 1 µg/mL (≈ 2.37 µM); in the assay on Staphylococcus aureus [5], 8 µg/mL (≈ 19 µM); in the assay with Staphylococcus aureus [6], 64 µg/mL (≈ 152 µM). For the same molecule, the MIC with Streptococcus pyogenes [7] stood at 0.25 µg/mL (≈ 0.593 µM); in the assay on Staphylococcus aureus [8], 1 µg/mL (≈ 2.37 µM); in the assay on Staphylococcus aureus [3], 8 µg/mL (≈ 19 µM); in the assay with Haemophilus influenzae [9], 4 µg/mL (≈ 9.49 µM).
For the molecule `CC1=C(C(=O)O)N2C(=O)C(NC(=O)[C@@H](N)c3cc4c(s3)CCCC4)C2SC1` (stereo partly drawn), the MIC with Haemophilus influenzae [4] came to 4 µg/mL (≈ 9.82 µM); against Streptococcus it was 64 µg/mL (≈ 157 µM); in [1], 2 µg/mL (≈ 4.91 µM); with Streptococcus pneumoniae [2] it was 0.25 µg/mL (≈ 0.613 µM); with Staphylococcus aureus [5] it was 16 µg/mL (≈ 39.3 µM); in the assay on Streptococcus pyogenes [7], 0.06 µg/mL (≈ 0.147 µM). The MIC against Staphylococcus aureus [8] is 0.25 µg/mL (≈ 0.613 µM); against Staphylococcus aureus [3], 8 µg/mL (≈ 19.6 µM); in the assay on Haemophilus influenzae [9], 16 µg/mL (≈ 39.3 µM).
For the molecule `CC1=C(C(=O)O)N2C(=O)C(NC(=O)[C@@H](N)c3cc4cc(Cl)ccc4s3)C2SC1` (stereo partly drawn), the MIC turned out to be 4 µg/mL (≈ 9.13 µM) in the assay with Haemophilus influenzae [4]; 2 µg/mL (≈ 4.57 µM) in assay [1]; 0.25 µg/mL (≈ 0.571 µM) with Streptococcus pneumoniae [2]; 8 µg/mL (≈ 18.3 µM) against Staphylococcus aureus [5]; 0.125 µg/mL (≈ 0.285 µM) in the assay with Streptococcus pyogenes [7]; 0.25 µg/mL (≈ 0.571 µM) against Staphylococcus aureus [8]. The MIC was 16 µg/mL (≈ 36.5 µM) in the assay on Staphylococcus aureus [3] and 64 µg/mL (≈ 146 µM) against Haemophilus influenzae [9].
`CC1=C(C(=O)O)N2C(=O)C(NC(=O)[C@H](N)c3csc4c(F)cccc34)C2SC1` (stereo partly drawn): the MIC with Haemophilus influenzae [4] turned out to be 0.5 µg/mL (≈ 1.19 µM); in assay [1], 4 µg/mL (≈ 9.49 µM); against Streptococcus pneumoniae [2], 0.5 µg/mL (≈ 1.19 µM); with Staphylococcus aureus [5], 16 µg/mL (≈ 38 µM); in the assay on Staphylococcus aureus [6], 128 µg/mL (≈ 304 µM); with Streptococcus pyogenes [7], 0.125 µg/mL (≈ 0.297 µM). Moreover, the values for the MIC against Staphylococcus aureus [8], in the assay on Staphylococcus aureus [3] and in the assay with Haemophilus influenzae [9] were 0.5 µg/mL (≈ 1.19 µM), 8 µg/mL (≈ 19 µM) and 4 µg/mL (≈ 9.49 µM), respectively.
Take `COc1ccc2c([C@@H](N)C(=O)NC3C(=O)N4C(C(=O)O)=C(C)CSC34)csc2c1` (stereo partly drawn): the MIC in the assay with Haemophilus influenzae [4] amounted to 4 µg/mL (≈ 9.23 µM); in assay [1] it was 4 µg/mL (≈ 9.23 µM); against Streptococcus pneumoniae [2], 0.125 µg/mL (≈ 0.288 µM); with Staphylococcus aureus [5] it was 8 µg/mL (≈ 18.5 µM); with Staphylococcus aureus [6] it was 16 µg/mL (≈ 36.9 µM); in the assay with Streptococcus pyogenes [7] it was 0.125 µg/mL (≈ 0.288 µM). Besides, the MIC against Staphylococcus aureus [8] turned out to be 1 µg/mL (≈ 2.31 µM); against Staphylococcus aureus [3], 4 µg/mL (≈ 9.23 µM); against Haemophilus influenzae [9], 32 µg/mL (≈ 73.8 µM).
In general, ED50 refers to the dose at which the effect has come halfway, by size or by number of responders. For the molecule `CC1=C(C(=O)O)N2C(=O)C(NC(=O)[C@@H](N)c3cc4ccccc4s3)C2SC1` (stereo partly drawn), the MIC is 1 µg/mL (≈ 2.48 µM) in the assay on Haemophilus influenzae [4]; 0.25 µg/mL (≈ 0.62 µM) against Staphylococcus aureus [10]; 2 µg/mL (≈ 4.96 µM) in [1]; 2 µg/mL (≈ 4.96 µM) against Streptococcus pneumoniae [2]; 0.5 µg/mL (≈ 1.24 µM) in the assay on Streptococcus pyogenes [7]; 1 µg/mL (≈ 2.48 µM) in the assay with Streptococcus pneumoniae [15]. The MIC was 0.5 µg/mL (≈ 1.24 µM) in the assay with Staphylococcus aureus [8], 32 µg/mL (≈ 79.3 µM) in the assay on Haemophilus influenzae [9] and 0.25 µg/mL (≈ 0.62 µM) with Streptococcus pyogenes [17]. Also, the ED50 in the assay with Streptococcus pneumoniae [11] was found to be 31 mg/kg; in the assay on Streptococcus pyogenes [12] it was 2.3 mg/kg; in the assay on Staphylococcus aureus [13], 0.13 mg/kg; in the assay with Staphylococcus aureus [14] it was 0.13 mg/kg; with Streptococcus pneumoniae [16] it was 15 mg/kg; in the assay on Streptococcus pyogenes [18] it was 2.6 mg/kg.
For the molecule `CC1=C(C(=O)O)N2C(=O)C(NC(=O)[C@@H](N)c3cc4c(Cl)cccc4s3)C2SC1` (stereo partly drawn), the MIC against Haemophilus influenzae [4] was determined as 1 µg/mL (≈ 2.28 µM); in the assay with Streptococcus, 64 µg/mL (≈ 146 µM); in [1], 2 µg/mL (≈ 4.57 µM); with Streptococcus pneumoniae [2], 0.5 µg/mL (≈ 1.14 µM); in the assay with Staphylococcus aureus [5], 4 µg/mL (≈ 9.13 µM); in the assay on Staphylococcus aureus [6], 16 µg/mL (≈ 36.5 µM). Further, the MIC in the assay with Streptococcus pyogenes [7] was found to be 0.125 µg/mL (≈ 0.285 µM); with Staphylococcus aureus [8], 0.5 µg/mL (≈ 1.14 µM); in the assay on Staphylococcus aureus [3] it was 4 µg/mL (≈ 9.13 µM); in the assay on Haemophilus influenzae [9] it was 32 µg/mL (≈ 73.1 µM).
As for `CC1=C(C(=O)O)N2C(=O)C(NC(=O)[C@H](N)c3csc4ccc(Cl)cc34)C2SC1` (stereo partly drawn), the MIC with Haemophilus influenzae [4] came to 0.5 µg/mL (≈ 1.14 µM); with Streptococcus, 64 µg/mL (≈ 146 µM); in assay [1] it was 4 µg/mL (≈ 9.13 µM); against Streptococcus pneumoniae [2] it was 0.25 µg/mL (≈ 0.571 µM); in the assay on Staphylococcus aureus [5], 4 µg/mL (≈ 9.13 µM); in the assay on Staphylococcus aureus [6], 16 µg/mL (≈ 36.5 µM). The results for the MIC in the assay with Streptococcus pyogenes [7], against Staphylococcus aureus [8] and with Staphylococcus aureus [3] were 0.125 µg/mL (≈ 0.285 µM), 0.5 µg/mL (≈ 1.14 µM) and 2 µg/mL (≈ 4.57 µM), respectively.
